One may read the EC50 as the midpoint of the concentration-response curve. The low end stands for an effect from little substance, the high end for a need for much substance. What is called IC50 is the concentration that gives 50% inhibition.

Consider 4 compounds from patent US20260000781A1, “FC CONJUGATES INCLUDING AN INHIBITOR OF CD73 AND USES THEREOF” (Cidara Therapeutics, Inc., priority 2022, published 2026).

Where “and” joins values, the source holds several entries; their conditions need not be identical. Identical values can stand only once.

Assay [1] relates to adenosine production by human PBMCs. Nature of the assay: PBMC activation assay, AMP conversion by CellTiter-Glo. It counts as cell-based. Conditions: 30 μM AMP, 72 h. The protocol: Human PBMCs (StemCell Technologies cat no. 70025) prepared in ImmunoCult™—XF T cell Expansion medium (StemCell Technologies cat no. 10981) were seeded at 1×10^5 cells per well (100 μL of 1×10^6 cells/mL) in the presence or absence of T cell activator anti-CD3/CD28/CD2 (StemCell Technologies cat no. 10970) in 96 well round bottom plates (Corning cat no. 3788). Ten-fold serial dilutions of each test article was prepared in medium (ranging from 4,000 nM-0.4 nM), resulting in final concentrations ranging from 1,000 nM-0.1 nM. 50 μL of test article was added to the cells, followed by 50 μL of adenosine 5′ monophosphate (AMP; MilliporeSigma cat no. A1752) for a final concentration of 30 μM. Plates were incubated at 37° C. with 5% CO2 for 72 h. After 72 h the cells were centrifuged for 5 min at 300×g at 4° C. and the supernatant was reserved for analysis of AMP conversion using CellTiter-Glo (Promega cat no. G7571).
25 μL of reserved supernatant was transferred to a white 96-well plate (Corning cat no. 3917) and combined with 25 μL of a 1 μM adenosine 5′ triphosphate (ATP; MilliporeSigma cat no. A7699) solution. 50 μL of CellTiter-Glo reagent was added, and the plate incubated for 10 min at room temperature. Luminescence was measured using an EnSpire plate reader (PerkinElmer). […]
(Cellular ATP, detected with luciferase, serves as a proxy for viable cell number.)

Assay [2] addresses T1, surface-expressed CD73 on human PBMCs (Homo sapiens, UniProt P21589).
T1 construct: 72400 (T cells); host or cells: human PBMCs / human T cells
T1 sequence (P21589 27-549): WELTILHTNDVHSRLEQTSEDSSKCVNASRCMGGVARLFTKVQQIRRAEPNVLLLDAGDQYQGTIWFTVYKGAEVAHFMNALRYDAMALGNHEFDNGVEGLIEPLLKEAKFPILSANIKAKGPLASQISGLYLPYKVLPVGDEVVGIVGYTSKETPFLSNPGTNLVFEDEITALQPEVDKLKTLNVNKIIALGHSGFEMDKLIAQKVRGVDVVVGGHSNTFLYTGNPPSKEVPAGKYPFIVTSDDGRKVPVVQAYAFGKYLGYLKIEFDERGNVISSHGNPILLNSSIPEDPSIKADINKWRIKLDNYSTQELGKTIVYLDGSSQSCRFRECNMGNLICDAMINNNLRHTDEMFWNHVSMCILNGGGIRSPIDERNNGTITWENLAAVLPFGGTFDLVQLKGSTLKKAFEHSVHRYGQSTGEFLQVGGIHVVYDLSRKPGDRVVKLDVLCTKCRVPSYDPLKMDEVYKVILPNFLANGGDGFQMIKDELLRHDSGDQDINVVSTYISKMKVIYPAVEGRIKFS
Nature of the assay: Human immune cell-based CD73 enzyme inhibition assay (PBMCs). The conditions noted are these: AMP 300 μM, 2.5-3 h. The protocol: The human immune cell-based CD73 enzyme inhibition assay was performed essentially as described above For the cell-free assay, with the following modifications. Human PBMCs (cat. no. HUMAN-PBMC-U-211140) or T cells (cat. no. 72400, Stem Cell Tech) were seeded at 8×10^3 cells/well into 96-well tissue culture-treated plates. […] Percent CD73 inhibition versus concentration were plotted using GraphPad Prism Version 8 and IC50's calculated using nonlinear regression analysis ([inhibitor]vs normalized response).

Assay [3] has as its target T2, CD73 (Homo sapiens, UniProt P21589).
T2 sequence (P21589 27-549): T1 sequence (P21589 27-549)
Nature of the assay: Cell-free CD73 enzyme inhibition assay. Conditions: recombinant human CD73 0.1 ng/μL, AMP 100 μM, 25 min at 37° C. (FIG. 1A, 1B). The format is biochemical. The method, then:
The cell-free CD73 enzyme inhibition assay was performed in a 96-well plate format using the CD73 Inhibitor Screening Assay Kit in accordance with the manufacturer's instructions (cat no. 72055, BPS Bioscience). […] Colorimetric detection reagent was then added (100 μL/well) and the free phosphate from the CD73 reaction was measured by reading the absorbance at 630 nm using the EnSpire multimode plate reader (PerkinElmer). Wells without test inhibitor (CD73 positive control) were included on each plate. Blank wells without test inhibitor and CD73 were subtracted from all wells. Percent CD73 inhibition versus inhibitor concentration was plotted using GraphPad Prism Version 8 and IC50's calculated using nonlinear regression analysis (Sigmoidal, 4 PL).
(§1) The cell-free CD73 enzyme inhibition assay was performed in a 96-well plate format using the CD73 Inhibitor Screening Assay Kit in accordance with the manufacturer's instructions (BPS Bioscience cat no. 72055). […] Colorimetric detection reagent was then added (100 μL/well) and the free phosphate from the CD73 reaction was measured by reading the absorbance at 630 nm using the EnSpire multimode plate reader (PerkinElmer). Wells without test inhibitor (CD73 positive control) were included on each plate. Blank wells without test inhibitor and CD73 were subtracted from all wells. Percent CD73 inhibition (y-axis) versus log10 inhibitor concentration (x-axis) was plotted using GraphPad Prism Version 8 and IC50's calculated using nonlinear regression analysis (Sigmoidal, 4 PL).

For assay [4], the target named is T2, CD73. Nature of the assay: Cell-free CD73 enzyme inhibition assay (BPS Bioscience kit, colorimetric free phosphate). The format is biochemical. The conditions noted are these: AMP 100 μM, 25 min at 37° C. The method, then:
as §1

As for `C[C@H](Nc1cc(Cl)nc2c1cnn2[C@@H]1O[C@H](COP(=O)(O)CP(=O)(O)O)[C@@H](O)[C@H]1O)c1ccccc1F` [AB680], the EC50 in assay [1] (Homo sapiens, PBMC) is 5 nM.
As for `COC[C@](CO)(OC[C@H]1O[C@@H](n2ncc3c(NC4CCCC4)nc(Cl)nc32)[C@H](O)[C@@H]1O)P(=O)(O)O` [OP5244], half-maximal inhibition in assay [2] (IC50) was put at 0.02 nM. This compound also gave a concentration giving a half-maximal response (EC50) in assay [1] of 1 nM.
Turning to `COC[C@](CO)(OC[C@H]1O[C@@H](n2ncc3c(NC4CCCC4)nc(Cl)nc32)[C@H](O)[C@@H]1O)P(=O)(O)O` [OP-5244], the IC50 at CD73 [3] was 1.3 nM; against CD73 [4], 3.8 nM and 3.79 nM.
For the compound `O=P(O)(O)COC[C@H]1O[C@@H](n2ncc3c(N4CC5(CCc6ccccc65)C4)nc(Cl)nc32)[C@H](O)[C@@H]1O` [SHR170008], the figures for the IC50 at CD73 [3] and against CD73 [4] were 4.1 nM and 12.9 nM, respectively.
